Test results reported in patent US20250255868A1, “HETEROCYCLIC COMPOUND ACTING AS KRAS G12D INHIBITOR” (Hangzhou Innogate Pharma Co., Ltd., priority 2021, published 2025).

Tests used:
Type in all cases: cell-based
[1] = tested on: HPAC (human pancreatic cancer cell line, KRAS G12D mutation); test: 3D cell proliferation inhibition (CellTiter-Glo), HPAC; settings: 168 h, 3D culture, seven days, CTG
Experimental: (§1) Compound activity was indicated by AGS (human gastric cancer cell line, KRAS G12D mutation), GP2D (human colon cancer cell line, KRAS G12D mutation), HPAC (human pancreatic cancer cell line, KRAS G12D mutation) and AsPCl (human pancreatic cancer cell line, KRAS G12D mutation) 3D cell proliferation inhibition. The Cell Titer-Glo (CTG) method was adopted. Compound was dissolved with DMSO to 10 mM, and then diluted by medium. The upper medium of cells was removed, washed once with DPBS, added 2 mL of trypsin, and placed at 37° C. for a while. After cells were detached from the petri dish, 5 mL fresh medium was added and the suspension cells were centrifuged at 1000 rpm for 5 minutes at room temperature. Resuspend the cells with 5 mL of fresh culture medium, and use Countess™ to count cells. 200 nL compounds were added to a ultra-low attachment 384-well plate, and 40 μL cells were added to each well. After seven days of culture at 37° C., 5% CO2, CTG was added and the signal was recorded using Envision. The Inhibition rate is calculated using the following formula: Inhibition %=(Ave_H-Sample)/(Ave_H-Ave_L)×100%. Ave_H represents the average reading value of DMSO well, Sample represents the average reading value of compound well, and Ave_L represents the average reading value of 10 μM positive control well. The log value of concentration was taken as the X-axis, and the percentage inhibition rate was taken as the Y-axis. The dose-effect curve was fitted with log(inhibitor) vs. response-Variable slope of the analysis software GraphPad Prism 5. The IC50 value or inhibitory rate of each compound on cell proliferation was obtained.

[2] = tested on: AGS (human gastric cancer cell line, KRAS G12D mutation); test: 3D cell proliferation inhibition (CellTiter-Glo), AGS; settings: 168 h, 3D culture, 100 nM compound, seven days, CTG
Experimental: as §1, with “The” for “Compound activity was indicated by AGS (human gastric cancer cell line, KRAS G12D mutation), GP2D (human colon cancer cell line, KRAS G12D mutation), HPAC (human pancreatic cancer cell line, KRAS G12D mutation) and AsPCl (human pancreatic cancer cell line, KRAS G12D mutation) 3D cell proliferation inhibition. The”

[3] = tested on: GP2D (human colon cancer cell line, KRAS G12D mutation); test: 3D cell proliferation inhibition (CellTiter-Glo), GP2D; settings: 168 h, 3D culture, seven days, CTG
Experimental: as §1, with “The log value of concentration was taken as the X-axis, and the percentage inhibition rate was taken as the Y-axis. The dose-effect curve was fitted with log(inhibitor) vs. response-Variable slope of the analysis software GraphPad Prism 5. The IC50 value or inhibitory rate of each compound on cell proliferation was obtained.” left out

[4] = tested on: AsPC1 (human pancreatic cancer cell line, KRAS G12D mutation); test: 3D cell proliferation inhibition (CellTiter-Glo), AsPC1; settings: ASPC1, 168 h, 3D culture, seven days, CTG
Experimental: as §1

Row | Compound | IC50 [1] | inhibition at 0.1 µM [2] | IC50 [3] | IC50 [4]
1 | C#Cc1c(F)ccc2cc(OP(=O)(O)O)cc(-c3ncc4c(N5CC6CCC(C5)N6)nc(OCC56CCCN5CC(=C(F)F)C6)nc4c3F)c12 (centres unmarked) [Compound 29] | < 10 nM | – | – | –
2 | C#Cc1cccc2cc(O)cc(-c3ncc4c(N5CC6CCC(C5)N6)nc(OCC56CCCN5CC(=C(F)F)C6)nc4c3F)c12 (centres unmarked) [Compound 10] | < 10 nM | > 50% | < 0.5 nM | < 5 nM
3 | Oc1cc(-c2ncc3c(N4CCNC5(CC5)C4)nc(OC[C@@]45CCCN4C[C@H](F)C5)nc3c2F)c2c(F)cccc2c1 [Compound 1] | – | > 50% | – | –
4 | C#Cc1c(F)ccc2cc(O)cc(-c3ncc4c(N5CCNC6(CC6)C5)nc(OCC56CCCN5CC(=C(F)F)C6)nc4c3F)c12 (centres unmarked) [Compound 24] | < 70 nM | – | – | –
5 | C#Cc1c(F)ccc2cc(OC(C)=O)cc(-c3ncc4c(N5CC6CCC(C5)N6)nc(OCC56CCCN5CC(=C(F)F)C6)nc4c3F)c12 (centres unmarked) [Compound 28] | < 70 nM | – | – | –
6 | C#Cc1c(F)ccc2cc(O)cc(-c3c(Cl)cc4c(N5CC6CCC(C5)N6)nc(OCC56CCCN5CC(=C(F)F)C6)nc4c3F)c12 (centres unmarked) [Compound 30] | < 25 nM | – | – | –
7 | C#Cc1c(F)ccc2cc(O)cc(-c3ncc4c(N5C6CCC5CNC6)nc(OC[C@@]56CCCN5C[C@H](F)C6)nc4c3F)c12 [Compound 21] | – | – | – | < 100 nM
8 | FC(F)=C1CN2CCCC2(COc2nc(N3CC4CCC(C3)N4)c3cnc(-c4cccc5cccc(F)c45)c(F)c3n2)C1 (centres unmarked) [Compound 13] | – | > 50% | – | –
9 | C#Cc1c(F)ccc2cccc(-c3ncc4c(N5CC6CCC(C5)N6)nc(OCC56CCCN5CC(=C(F)F)C6)nc4c3F)c12 (centres unmarked) [Compound 12] | < 70 nM | > 50% | – | –
10 | Oc1cc(-c2ncc3c(N4CC5CCC(C4)N5)nc(OCC45CCCN4CC(=C(F)F)C5)nc3c2F)c2c(F)cccc2c1 (centres unmarked) [Compound 4] | < 15 nM | > 50% | < 0.5 nM | –
11 | C#Cc1c(F)ccc2cc(O)cc(-c3ncc4c(N5C6CCC5CNC6)nc(OCC56CCCN5CC(=C(F)F)C6)nc4c3F)c12 (centres unmarked) [Compound 23] | < 50 nM | – | – | –
12 | C#Cc1c(F)ccc2cc(O)cc(-c3ncc4c(N5CC6CCC(C5)N6)nc(OCC56CCCN5CC(=C(F)F)C6)nc4c3F)c12 (centres unmarked) [Compound 20] | < 5 nM | – | – | –
13 | CCc1c(F)ccc2cccc(-c3ncc4c(N5CC6CCC(C5)N6)nc(OCC56CCCN5CC(=C(F)F)C6)nc4c3F)c12 (centres unmarked) [Compound 14] | – | > 50% | – | –
14 | C#Cc1c(F)ccc2cc(O)cc(-c3ncc4c(N5CCNC6(CC6)C5)nc(OC[C@@]56CCCN5C[C@H](F)C6)nc4c3F)c12 [Compound 22] | – | – | – | < 150 nM
